Test results: patent US5179120A, “Porphycene compounds for photodynamic therapy” (Cytopharm, Inc., priority 1991, dated 1993)

Tests used:
[1] = Solubility of the title compound in selected solvents; type: physicochemical
Text: Solubility of the title compound in selected solvents: […]

[2] = Stability towards oxygen and light (observation during preparation); type: physicochemical; conditions: traces of oxygen in the presence of light
Method: At room temperature while stirring in the dark, 243 mg (248 μL, 1.6 mmol) DBU were added all at once to a solution of 14.8 mg (20 μmol) tetrakis(bromoethyl)porphycene in 50 mL of absolute THF. After thirty minutes, the agitator was turned off and the mixture left to stand at room temperature for two days. Subsequently the greenish-blue solution was treated with 80 mL of CH2 Cl2 and poured into 80 mL of 0.5% HCl. The organic phase was shaken out and washed with water and a 2% NaHCO3 solution, dried over Na2 SO4 and the solvent was evaporated under vacuum. The residue was chromatographed with CH2 Cl2 on aluminum oxide (Brockmann, II-III activity stage, column 2×10 cm) and the first green fraction was collected. The solvent was slowly evaporated under a slight vacuum and the remaining fine crystalline solid was washed with 3 mL of ice cooled, absolute pentane. Following drying under a high vacuum, 4.1 mg (10 μmol) tetravinylporphycene were obtained. […] The yield was 50%.
All reagents and solvents were purged of oxygen by introducing inert gas and all purification steps were carried out under subdued light, as was the reaction.

For `COCCC1=Cc2nc1ccc1[nH]c(cc1CCOC)c1nc(c(OC(C)=O)cc3[nH]c2cc3CCOC)C(CCOC)=C1` [9-Acetoxy-2,7,12,17-tetrakis(methoxyethyl)porphycene], the “Solubility of the title compound in selected solvents” value (“Solubility … in selected solvents” below) ([1]; CH2 Cl2) was “Excellent”, the “Solubility … in selected solvents” value ([1]; CHCl3) was “Excellent” and the “Solubility … in selected solvents” value ([1]; DEET) was “Good”. The “Solubility … in selected solvents” value ([1]; DMF) was “Good”, the “Solubility … in selected solvents” value ([1]; DMSO) was “Good” and the “Solubility … in selected solvents” value ([1]; EtOH) was “Moderate”. For the same compound, the “Solubility … in selected solvents” value ([1]; MeOH) was “Moderate”, the “Solubility … in selected solvents” value ([1]; THF) was “Excellent” and the “Solubility … in selected solvents” value ([1]; Toluene) was “Good”. The “Solubility … in selected solvents” value ([1]; acetone) was “Good”, the “Solubility … in selected solvents” value ([1]; ethyl acetate) was “Excellent” and the “Solubility … in selected solvents” value ([1]; hexane) was “Insoluble”. The “Solubility … in selected solvents” value ([1]; i-propanol) was “Moderate” and the “Solubility … in selected solvents” value ([1]; water) was “Insoluble”.
In the case of `C=CC1=Cc2nc1ccc1[nH]c(cc1C=C)c1nc(ccc3[nH]c2cc3C=C)C(C=C)=C1` [2,7,12,17-Tetravinylporphycene], the “Stability (decomposition)” value [2] is reported as “decomposed even with traces of oxygen in the presence of light”.
